Marks after values point to notes of the source that are not given here.

In data set [1] the target is α-Glucosidase enzyme from Brewer's yeast (EC 3.2.1.20). As to the kind of experiment: α-glucosidase (AG) inhibition assay. Type of data set: biochemical. The note with it: mean ± standard error; substrate p-NPG; a dash for a tested fraction or compound means no AG activity. An excerpt: (§1) The positive control, acarbose, was purchased from Bayer Pharmaceuticals Pty, Ltd. (Wayne, NJ). Human recombinant aldose reductase and DL-glyceraldehyde were purchased from Wako Pure Chemical Industries, Ltd. (Osaka, Japan). Gliclazide was obtained from Servier Canada (Laval, QC, Canada). Pre-coated silica plates 60 GF254 (20 × 20 cm) (Fluka, Steinheim, Germany) were used for thin-layer chromatography (TLC). Silica gel H (Merck, Darmstadt, Germany) and Lichroprep RP-18 silica gel (15–25 μm, Merck, Darmstadt, Germany) were used for vacuum liquid chromatography (VLC). Silica gel 60 (70–230 mesh ASTM, Fluka, Steinheim, Germany), Diaion HP 20 (Sigma-Aldrich, St. Louis, MO), and Sephadex LH-20 (Sigma-Aldrich, Steinheim, Sweden) were used for column chromatography (CC). Spots were visualized by spraying with p-anisaldehyde/sulphuric acid.
(§2) AG and AR inhibitory activities of MeEx, ClFr, BuFr, AqFr, as well as the Diaion fractions D1–D6 were tested. AG inhibition was measured spectrophotometrically in a 96-well microplate reader using a procedure reported by Li et al. ([2009]). Acarbose was used as a positive control. The AR (EC 1.1.1.21) inhibitory activity was measured according to the procedure previously reported (Nishimura et al. [1991]). The experiments were repeated three times, and the IC50 values were calculated and expressed as mean ± standard error.

Data set [2] addresses T1, Human recombinant aldose reductase (Homo sapiens, UniProt P15121).
T1 construct: purchased Wako Pure Chemical Industries, Ltd. (Osaka, Japan)
Nature of the data set: aldose reductase (AR) inhibition assay. Type of data set: biochemical. To be noted: mean ± standard error.
Text: as §1, §2

Data set [3] has as its system STZ-induced diabetic rats. As to the kind of experiment: in vivo antidiabetic activity in STZ-induced diabetic rats. Also noted: species or system male albino rats (Wistar strain). The note with it: for Glucose level: fasting serum; for Glucose level / C-peptide / Cholesterol level / Insulin / Triglycerides: mean ± SEM, n = 6; for C-peptide / Cholesterol level / Insulin / Triglycerides: serum. Here is the method: (§3) Male albino rats (Wistar strain, 150–200 g) and male mature albino mice of 20–25 g were obtained from the animal house colony of the National Research Center, Egypt. The experimental protocol followed the Institutional Animal Ethical Committee of the National Research Centre. The acute toxicity studies were performed on the mice. […] The animals survived and then four additional animals were tested sequentially so that a total of five animals were tested.
DM was induced by a single i.p. injection of STZ (55 mg/kg) in rats (Brosky and Logothetopoulos [1969]). Only rats with serum glucose levels of more than 250 mg/dL were selected and considered diabetic animals. MeEx, its active fraction (BuFr) and the active compound 3 were tested in the STZ-induced diabetic rats at two dose levels (100 and 200 mg/kg.b/wt) for 2 weeks. At the end of the 2-weeks treatment period, the animals were kept for an overnight fasting and the blood samples were collected from the retroorbital plexus and allowed to clot for 30 min at room temperature. These blood samples were centrifuged at 5000 rpm for 20 min and the serum was separated and stored at −80 °C until analysis was done. Serum samples were analyzed spectrophotometrically for serum glucose, triglycerides and cholesterol. Serum glucose was estimated by glucose oxidase–peroxidase method test agent kit (Stanbio, Boerne, TX) (Cheyne and Gilmore [1973]). Triglycerides were estimated by enzymatic methods by using a diagnostic kit (Biodiagnostic, Cairo, Egypt) (Fossati and Prencipe [1982]). Total cholesterol was estimated by enzymatic methods by using a diagnostic kit (Biodiagnostic, Cairo, Egypt) (Allain et al. [1974]). Serum insulin was estimated by a […] using the ALPCO Insulin (Rat) ELISA kit (Judzewitsch et al. [1982]). Serum C-peptide was measured with a rat insulin enzyme-linked immune absorbent assay kit (C-Peptide EIA Kit, Sigma-Aldrich, St. Louis, MO). Results were expressed as mean ± SEM for biochemical estimations. The quantitative data were analyzed by ANOVA followed by Tukey multiple comparison tests. The Kruskal–Wallis test was used for the quantitative analysis of the histopathology score values. Results were considered to be significant at p < 0.05.

The test system of the next data set is male mature albino mice. Nature of the data set: acute toxicity study in mice. The class given is in vivo. To be noted: ascending oral doses up to 2000 mg/kg, observed closely for 24 h and daily for 14 days. Here is the method: as §3
The acute toxicities of the three samples (MeEx, BuFr and compound 3) were studied where the mice took ascending oral doses up to 2000 mg/kg of each sample. They were observed closely for 24 h and daily for 14 days, where no mortality was observed.

The mark [4] stands for this setting: 200 mg/kg for 2 weeks, versus diabetic control.

For the molecule `C[C@H]1O[C@H](O[C@H]2[C@H](O)[C@@H](O)[C@@H](O[C@H]3[C@H](O)[C@@H](O)C(O)O[C@@H]3CO)O[C@@H]2CO)[C@H](O)[C@@H](O)[C@@H]1N[C@H]1C=C(CO)[C@@H](O)[C@H](O)[C@H]1O` (stereo partly shown) [Acarbose, acarbose, reference compound], the “AG inhibition IC50” value in data set [1] came to 24.00 ± 2.31 µg/mL.

The term IC50 denotes the concentration that inhibits the measured activity by half. Consider `CC[C@H](/C=C/C(C)C1CCC2C3CC=C4C[C@@H](O[C@@H]5O[C@H](CO)[C@@H](O)[C@H](O)[C@H]5O)CCC4(C)C3CCC12C)C(C)C` (stereo partly drawn) [Compound 1, stigmasterol-3-O-β-D-glucopyranoside], for which, in data set [2], the “AR inhibition IC50” value was “inactive” and the concentration for half-maximal inhibition (IC50) is 49.7 µM.

As to `CC(O)C1C(O)CC2C3CC=C4CC(OC5OC(CO)C(O)C(O)C5O)CCC4(C)C3CCC21C` [Compound 2, pregn-5-ene-3β,16β,20(R)-triol 3-O-β-D-glucopyranoside], in data set [2], the “AR inhibition IC50” value is “inactive” and the IC50 was 24.6 µM.

Regarding `COC1(CC[C@@H](C)CO[C@@H]2O[C@H](CO)[C@@H](O)[C@H](O)[C@H]2O)OC2C[C@H]3[C@@H]4CC=C5C[C@@H](O[C@@H]6O[C@H](CO)[C@@H](O[C@@H]7O[C@H](CO)[C@@H](O)[C@H](O)[C@H]7O)[C@H](O)[C@H]6O[C@@H]6O[C@@H](C)[C@H](O)[C@@H](O)[C@H]6O)CC[C@]5(C)[C@H]4CC[C@]3(C)C2[C@@H]1C` (stereo partly drawn) [Compound 3, 26-(O-β-D-glucopyranosyl)-22-O-methylfurost-5-ene-3β,26-diol-3-O-β-D-glucopyranosyl-(1 → 4)-[α-L-rhamnopyranosyl-(1 → 2)]-β-D-glucopyranoside], in data set [3] (100 mg/kg for 2 weeks), the Glucose level is given as 207.4 ± 18.33^a mg/dL, the C-peptide is given as 1.42 ± 0.07^a ng/mL, the Cholesterol level came to 139.2 ± 10.30 mg/dL and the Insulin is listed as 1.99 ± 0.04^a μIU/mL. This molecule also yielded a Triglycerides in data set [3] (100 mg/kg for 2 weeks) of 112.2 ± 9.89 mg/dL. Moreover, in data set [3] (200 mg/kg for 2 weeks), the Glucose level was 122.2 ± 18.22^b mg/dL, the C-peptide is reported as 2.04 ± 0.06^b ng/mL, the Cholesterol level is reported as 115.6 ± 7.12^b mg/dL and the Insulin is 3.17 ± 0.28^b μIU/mL. Further, in data set [3] (200 mg/kg for 2 weeks), the Triglycerides was 113.5 ± 7.73 mg/dL. Also, in data set [3] (setting [4]), the “increase in C-peptide level” value is recorded as 65%, the “reduction in fasting blood/plasma glucose level” value came to 51.39% and the “reduction in total cholesterol level” value turned out to be 31.19%. Also, the “reduction in total cholesterol level” value in data set [3] (200 mg/kg for 2 weeks, versus diabetic control, listed as furostanol saponin 3) is given as 31.9%. The “AG inhibition IC50” value in data set [1] is 03.12 ± 0.17 µg/mL. Further, the “mortality (acute toxicity)” value in the data set on male mature albino mice is “no mortality”. In addition, the IC50 in data set [2] was 0.964 µM.

For the molecule `Cc1ccc(S(=O)(=O)NC(=O)NN2CC3CCCC3C2)cc1` (stereo not shown) [Gliclazide, reference compound], in data set [3] (10 mg/kg (standard drug)), the Glucose level was 93.09 ± 5.80^b mg/dL, the C-peptide was 1.78 ± 0.11 ng/mL, the Cholesterol level was 125.3 ± 5.98^b mg/dL and the Insulin is reported as 2.82 ± 0.18^a^,^b μIU/mL. Moreover, the Triglycerides in data set [3] (10 mg/kg (standard drug)) turned out to be 103.7 ± 9.73 mg/dL. Also, in data set [3] (10 mg/kg (standard drug), versus diabetic control), the “reduction in cholesterol level” value is on record as 25.42%.
